Experimental data from patent US20120196915A1, “Antitumor 1,2-Diphenylpyrrole Compounds and their Preparation Process” (ARGON PHARMA, S.L., priority 2009, published 2012).

Legend:
LS174T cell line = test: Cell viability assay (XTT), LS174T; assay type: cell-based, human; conditions: 4 h exposure, 20, 40 or 60 μM, in comparison with the comparative compound
Procedure: (§1) H-727 and H-460 cell lines, derived from human lung carcinoma, and human prostate carcinoma PC3 cells, were cultured in RPMI 1640 medium supplemented with 10% fetal bovine serum, 1% glutamine and 100 units/ml penicillin/streptomycin (Life Technologies, Inc.). LS174T cells, derived from human colorectal carcinoma, and CAL51 cells, from breast carcinoma, were cultured in DMEM medium supplemented with 10% fetal bovine serum, 1% glutamine and 100 units/ml penicillin/streptomycin (Life Technologies, Inc.). All cell lines were incubated at 37° C. in a humidified atmosphere containing 5% CO2. The stock solution of each compound was reconstituted in DMSO and diluted in culture media before use.
(§2) Antitumor activity was evaluated measuring cell metabolic capacity (viability), using the Cell Proliferation Kit II (XTT) and following the recommendations of the manufacturer (Roche Diagnostics). The assays were carried out in triplicates, with controls containing unexposed cells, cells with vehicle, or media plus compound. Cells were seeded into 96-well plates in 100 μl of media and incubated for 24 h. […] After 4 h of incubation at 37° C., the absorbance at 490 nm was read. The growth inhibitory activity was obtained subtracting the absorbance of the blanks and expressed as percentage of cell growth inhibition, as compared with untreated controls.

PC3 cell line = test: Cell viability assay (XTT), PC3; assay type: cell-based, human; conditions: PC3, 4 h exposure, 20, 40 or 60 μM, in comparison with the comparative compound
Procedure: as §1, §2

CAL51 cell line = test: Cell viability assay (XTT), CAL51; assay type: cell-based; conditions: CAL51, 4 h exposure, 20, 40 or 60 μM, in comparison with the comparative compound
Procedure: as §1, §2

H-460 cell line = test: Cell viability assay (XTT), H-460; assay type: cell-based, human; conditions: H-460, 4 h exposure, 20, 40 or 60 μM, in comparison with the comparative compound
Procedure: as §1, §2

H-727 cell line = test: Cell viability assay (XTT), H-727; assay type: cell-based, human
Procedure: as §1, §2

Compound: NS(=O)(=O)c1ccc(-n2cc(C(F)(F)F)cc2-c2cc(C(F)(F)F)cc(C(F)(F)F)c2)cc1 [Example 2, 4-[2-(3,5-Bis(trifluoromethyl)phenyl)-4-(trifluoromethyl)-1H-pyrrol-1-yl]benzenesulfonamide]
- tumor cell viability (LS174T cell line): significantly reduced tumor cell viability
- tumor cell viability (PC3 cell line): significantly reduced tumor cell viability
- tumor cell viability (CAL51 cell line): significantly reduced tumor cell viability
- tumor cell viability (H-460 cell line): significantly reduced tumor cell viability
- tumor cell viability (H-727 cell line; H-727, 4 h exposure, 20, 40 or 60 μM, in comparison with the comparative compound): significantly reduced tumor cell viability
- reduction in the tumor cell viability percentage (H-727 cell line; H-727, at 40 μm, 4 h, as compared to the comparative example): more than 50%
